From the NIST ThermoML archive (doi:10.1021/je3006985)

Experiments:
[1] = mn = molality of the nth substance listed, in mol/kg; conditions: 298.15 K, 101 kPa, Liquid
[2] = osmotic coefficient (dimensionless); mn = molality of the nth substance listed, in mol/kg; conditions: 298.15 K, Liquid, Vapor Pressure Osmometer (Knaur K-7000)

CCCCNc1ccc(C(=O)OCCN(C)C)cc1.Cl + O
Conditions | mass density, [1] [kg/m3] | osmotic coefficient, [2]
m1 = 0.01696 | 997.722 | 0.896
m1 = 0.0205 | 997.869 | 0.884
m1 = 0.02526 | 998.076 | 0.871
m1 = 0.0301 | 998.265 | 0.858
m1 = 0.03454 | 998.444 | 0.848
m1 = 0.03897 | 998.614 | 0.839
m1 = 0.04254 | 998.764 | 0.832
m1 = 0.04793 | 998.98 | 0.822
m1 = 0.05807 | 999.405 | 0.805
m1 = 0.06741 | 999.767 | 0.79
m1 = 0.07521 | 1000.07 | 0.778
m1 = 0.08589 | 1000.49 | 0.762
m1 = 0.09567 | 1000.88 | 0.747
m1 = 0.1161 | 1001.66 | 0.716
m1 = 0.1436 | 1002.67 | 0.672
m1 = 0.1726 | 1003.78 | 0.622
m1 = 0.1924 | 1004.46 | 0.587
m1 = 0.2427 | 1006.27 | 0.498
m1 = 0.3009 | 1008.22 | 0.411
m1 = 0.3479 | 1009.67 | 0.367
m1 = 0.4005 | 1011.44 | 0.363

CCN(CC)CCOC(=O)c1ccc(N)cc1.Cl [2-diethylaminoethyl p-aminobenzoate hydrochloride] + O
Conditions | mass density, [1] [kg/m3] | osmotic coefficient, [2]
m1 = 0.0158 | 997.809 | 0.885
m1 = 0.01893 | 997.979 | 0.873
m1 = 0.02475 | 998.219 | 0.856
m1 = 0.03023 | 998.477 | 0.843
m1 = 0.03265 | 998.609 | 0.838
m1 = 0.03891 | 998.872 | 0.827
m1 = 0.04358 | 999.105 | 0.82
m1 = 0.04823 | 999.338 | 0.814
m1 = 0.05787 | 999.774 | 0.804
m1 = 0.0712 | 1000.37 | 0.794
m1 = 0.09584 | 1001.52 | 0.781
m1 = 0.1165 | 1002.46 | 0.772
m1 = 0.1438 | 1003.64 | 0.759
m1 = 0.1749 | 1005.05 | 0.741
m1 = 0.1973 | 1005.94 | 0.727
m1 = 0.2187 | 1007.01 | 0.713
m1 = 0.2457 | 1008.14 | 0.694
m1 = 0.2791 | 1009.54 | 0.673
m1 = 0.2997 | 1010.41 | 0.661
m1 = 0.3205 | 1011.32 | 0.65
m1 = 0.3523 | 1012.67 | 0.636
m1 = 0.4061 | 1014.95 | 0.62
m1 = 0.4613 | 1016.97 | 0.609
m1 = 0.517 | 1019.21 | 0.587

CCN(CC)CC(=O)Nc1c(C)cccc1C.Cl [lidocaine hydrochloride] + O
Conditions | mass density, [1] [kg/m3] | osmotic coefficient, [2]
m1 = 0.01004 | 997.37 | 0.879
m1 = 0.02018 | 997.713 | 0.83
m1 = 0.02958 | 998.034 | 0.807
m1 = 0.03474 | 998.184 | 0.8
m1 = 0.03911 | 998.35 | 0.796
m1 = 0.04409 | 998.51 | 0.793
m1 = 0.04809 | 998.641 | 0.792
m1 = 0.05588 | 998.887 | 0.792
m1 = 0.07017 | 999.384 | 0.796
m1 = 0.09322 | 1000.14 | 0.805
m1 = 0.1151 | 1000.85 | 0.812
m1 = 0.141 | 1001.69 | 0.813
m1 = 0.1712 | 1002.65 | 0.805
m1 = 0.188 | 1003.15 | 0.797
m1 = 0.2082 | 1003.81 | 0.785
m1 = 0.2386 | 1004.84 | 0.765
m1 = 0.2675 | 1005.71 | 0.748
m1 = 0.2906 | 1006.37 | 0.736
m1 = 0.3089 | 1006.95 | 0.728
m1 = 0.3399 | 1007.94 | 0.72
m1 = 0.3919 | 1009.45 | 0.718
m1 = 0.4432 | 1011.03 | 0.72
m1 = 0.4982 | 1012.71 | 0.696
